Molecules are shown by their SMILES.

These results are taken from patent US20220227707A1, “COMPOUNDS AND COMPOSITIONS FOR TREATING CONDITIONS ASSOCIATED WITH NLRP ACTIVITY” (Novartis AG, priority 2019, published 2022).

The test system of the first test is IL-1β production in PMA-differentiated THP-1 cells. The test can be described thus: IL-1β production in PMA-differentiated THP-1 cells stimulated with gramicidin (hTHP-1 assay). Particulars: Average IC50, hTHP-1 assay containing 2% fetal bovine serum; Table 10, class symbols. The format is cell-based, human. The method, then:
Procedure 1: IL-1β Production in PMA-Differentiated THP-1 Cells Stimulated with Gramicidin
THP-1 cells were purchased from the American Type Culture Collection and sub-cultured according to instructions from the supplier. Cells were cultured in complete RPMI 1640 (containing 10% heat inactivated FBS, penicillin (100 units/ml) and streptomycin (100 μg/ml)), and maintained in log phase prior to experimental setup. Prior to the experiment, compounds were dissolved in dimethyl sulfoxide (DMSO) to generate a 30 mM stock. The compound stock was first pre-diluted in DMSO to 3, 0.34, 0.042 and 0.0083 mM intermediate concentrations and subsequently spotted using Echo550 liquid handler into an empty 384-well assay plate to achieve desired final concentration (e.g. 100, 33, 11, 3.7, 1.2, 0.41, 0.14, 0.046, 0.015, 0.0051, 0.0017 μM). DMSO was backfilled in the plate to achieve a final DMSO assay concentration of 0.37%. The plate was then sealed and stored at room temperature until required.
THP-1 cells were treated with PMA (Phorbol 12-myristate 13-acetate) (20 ng/ml) for 16-18 hours. On the day of the experiment the media was removed and adherent cells were detached with trypsin for 5 minutes. Cells were then harvested, washed with complete RPMI 1640, spun down, and resuspended in RPMI 1640 (containing 2% heat inactivated FBS, penicillin (100 units/ml) and streptomycin (100 μg/ml). The cells were plated in the 384-well assay plate containing the spotted compounds at a density of 50,000 cells/well (final assay volume 50 μl). Cells were incubated with compounds for 1 hour and then stimulated with gramicidin (5 μM) (Enzo) for 2 hours. Plates were then centrifuged at 340 g for 5 min. Cell free supernatant ([…]) was collected using a 96-channel PlateMaster (Gilson) and the production of IL-1β was evaluated by HTRF (cisbio). The plates were incubated for 18 h at 4° C. and read using the preset HTRF program (donor emission at 620 nm, acceptor emission at 668 nm) of the SpectraMax i3x spectrophotometer (Molecular Devices, software SoftMax 6). A vehicle only control and a dose titration of CRID3 (100-0.0017 μM) were run concurrently with each experiment.
Procedure 2: […] Production in PMA-Differentiated THP-1 Cells Stimulated with Gramicidin
THP-1 cells were purchased from the American Type Culture Collection and sub-cultured according to instructions from the supplier. Prior to experiments, cells were cultured in complete RPMI 1640 (containing 10% heat inactivated FBS, penicillin (100 units/ml) and streptomycin (100 μg/ml)), and maintained in log phase prior to experimental setup. Prior to the experiment THP-1 were treated with PMA (Phorbol 12-myristate 13-acetate) (20 ng/ml) for 16-18 hours. Compounds were dissolved in dimethyl sulfoxide (DMSO) to generate a 30 mM stock. On the day of the experiment the media was removed and adherent cells were detached with trypsin for 5 minutes. Cells were then harvested, washed with complete RPMI 1640, spun down, resuspended in RPMI 1640 (containing 2% heat inactivated FBS, penicillin (100 units/ml) and streptomycin (100 μg/ml). The cells were plated in a 384-well plate at a density of 50,000 cells/well (final assay volume 50 μl). Compounds were first dissolved in assay medium to obtain a 5× top concentration of 500 μM. 10 step dilutions (1:3) were then undertaken in assay medium containing 1.67% DMSO. 5× compound solutions were added to the culture medium to achieve desired final concentration (e.g. 100, 33, 11, 3.7, 1.2, 0.41, 0.14, 0.046, 0.015, 0.0051, 0.0017 μM). Final DMSO concentration was at 0.37%. Cells were incubated with compounds for 1 hour and then stimulated with gramicidin (5 μM) (Enzo) for 2 hours. Plates were then centrifuged at 340 g for 5 min. Cell free supernatant (40 μL) was collected using a 96-channel PlateMaster (Gilson) and the production of IL-1β was evaluated by HTRF (cisbio). A vehicle only control and a dose titration of CRID3 (100-0.0017 μM) were run concurrently with each experiment. […]
`CC(CN(C)C)CS(N)(=O)=NC(=O)Nc1c2c(cc3c1CCC3)CCC2` (stereo not drawn) [Compound 121] displayed an IC50 of 5 to 30 µM.
Regarding `CC(CN(C)C)CS(N)(=O)=NC(=O)Nc1c2c(cc3c1CCC3)CCC2` (stereo not drawn) [Compound 123, 3-(dimethylamino)-N′-((1,2,3,5,6,7-hexahydro-s-indacen-4-yl)carbamoyl)-2-methylpropane-1-sulfonimidamide], the IC50 fell in the range of 5 to 30 µM.
The molecule `CC(CN(C)C)CS(N)(=O)=NC(=O)Nc1c2c(cc3c1CCC3)CCC2` (stereo not drawn) [Compound 125, 3-(dimethylamino)-N′-((1,2,3,5,6,7-hexahydro-s-indacen-4-yl)carbamoyl)-2-methylpropane-1-sulfonimidamide] displayed an IC50 of 1 to 5 µM.
`CN(C)CCCS(N)(=O)=NC(=O)Nc1c2c(cc3c1CCC3)CCC2` (stereo not drawn) [Compound 144] returned an IC50 of 5 to 30 µM.

Still in this test, the particulars now being: Average IC50, hTHP-1 assay containing 2% fetal bovine serum; Table 10, numeric values.
Consider `CN1CCC(S(N)(=O)=NC(=O)Nc2c3c(cc4c2CCC4)CCC3)CC1` (stereo not drawn) [Compound 138], for which the IC50 is above 30 µM.
Molecule `CN1CCC(S(N)(=O)=NC(=O)Nc2c3c(cc4c2CCC4)CCC3)CC1` (stereo not drawn) [Compound 140] yielded an IC50 above 30 µM.
In the case of `NS(=O)(=NC(=O)Nc1c2c(cc3c1CCC3)CCC2)C1CCCCC1` (stereo not drawn) [Compound 148], the IC50 was above 30 µM.
Molecule `NS(=O)(=NC(=O)Nc1c2c(cc3c1CCC3)CCC2)C1CCCCC1` (stereo not drawn) [Compound 150] returned an IC50 above 30 µM.
With `NS(=O)(=NC(=O)Nc1c2c(cc3c1CCC3)CCC2)C1CCCC1` (stereo not drawn) [Compound 152], the IC50 is above 30 µM.
On the same count and under the same terms, the same measure for `CN(C)CC1(S(N)(=O)=NC(=O)Nc2c3c(cc4c2CCC4)CCC3)CC1` (stereo not drawn) [Compound 159]: above 30 µM; for `CN(C)CC1(S(N)(=O)=NC(=O)Nc2c3c(cc4c2CCC4)CCC3)CC1` (stereo not drawn) [Compound 160]: above 30 µM.
Molecule `CC1(S(N)(=O)=NC(=O)Nc2c3c(cc4c2CCC4)CCC3)CC1` (stereo not drawn) [Compound 163] gave an IC50 above 30 µM.
In the case of `CC(C)c1cc(F)cc(C(C)C)c1CC(=O)N=S(N)(=O)CCCN(C)C` (stereo not drawn) [Compound 302], the IC50 was above 30 µM.
`CC(C)c1cc(F)cc(C(C)C)c1CC(=O)N=S(N)(=O)CCCN(C)C` (stereo not drawn) [Compound 303] displayed an IC50 above 30 µM.
`CC(C)c1cc(F)cc(C(C)C)c1CC(=O)N=S(N)(=O)C1CCCC1` (stereo not drawn) [Compound 305] displayed an IC50 above 30 µM.
Consider `CC(C)c1cc(F)cc(C(C)C)c1CC(=O)N=S(N)(=O)C1CCCC1` (stereo not drawn) [Compound 306], for which the IC50 was above 30 µM.
`CC(C)c1cc(F)cc(C(C)C)c1CC(=O)N=S(N)(=O)C1CC1` (stereo not drawn) [Compound 309] displayed an IC50 above 30 µM.

The same test, now with this note: Homo sapiens, THP-1, Average IC50, hTHP-1 assay containing 2% fetal bovine serum; Table 3B, class symbols.
Molecule `CC(C)c1cc(C#N)cc(C(C)C)c1CC(=O)NS(=O)(=O)N1CCCCC1` [Compound 201B, 2-(4-cyano-2,6-diisopropylphenyl)-N-(piperidin-1-ylsulfonyl)acetamide] showed an IC50 of 5 to 30 µM.
Same read-out and setting: the same measure for `CC(C)c1cc(C#N)cc(C(C)C)c1CC(=O)NS(=O)(=O)N1CCC(CN(C)C)CC1` [Compound 202B, 2-(4-cyano-2,6-diisopropylphenyl)-N-((4-((dimethylamino)methyl)piperidin-1-yl)sulfonyl) acetamide]: 5 to 30 µM; for `CC(C)c1cc(C#N)cc(C(C)C)c1CC(=O)NS(=O)(=O)N1CCC(C(C)(C)O)C1` (stereo not drawn) [Compound 203B]: 5 to 30 µM.

The same test, now with this note: Homo sapiens, THP-1, Average IC50, hTHP-1 assay containing 2% fetal bovine serum; Table 10, class symbols.
As to `CN1CCC(CS(N)(=O)=NC(=O)Nc2c3c(cc4c2CCC4)CCC3)C1` (stereo not drawn) [Compound 112, N′-((1,2,3,5,6,7-hexahydro-s-indacen-4-yl)carbamoy1)-1-(1-methylpyrrolidin-3-yl) methane-sulfonimidamide], the IC50 fell in the range of 1 to 5 µM.
For the molecule `CS(N)(=O)=NC(=O)Nc1c2c(cc3c1CCC3)CCC2` (stereo not drawn) [Compound 115, N′-((1,2,3,5,6,7-hexahydro-s-indacen-4-yl)carbamoyl) methane-sulfonimidamide], the half-inhibitory concentration (IC50) was in the range of 5 to 30 µM.
The molecule `NS(=O)(=NC(=O)Nc1c2c(cc3c1CCC3)CCC2)C1Cc2ccccc2C1` (stereo not drawn) [Compound 139, N′-((1,2,3,5,6,7-hexahydro-s-indacen-4-yl)carbamoy1)-2,3-dihydro-1H-indene-2-sulfonimidamide] showed an IC50 of 5 to 30 µM.
`CN(C)CCCS(N)(=O)=NC(=O)Nc1c2c(cc3c1CCC3)CCC2` (stereo not drawn) [Compound 141] showed an IC50 of 5 to 30 µM.
Take `NS(=O)(=NC(=O)Nc1c2c(cc3c1CCC3)CCC2)C1CCCC1` (stereo not drawn) [Compound 153]: the IC50 lay in the range of 5 to 30 µM.
Consider `CC1(S(N)(=O)=NC(=O)Nc2c3c(cc4c2CCC4)CCC3)CC1` (stereo not drawn) [Compound 162], for which the IC50 fell in the range of 0.2 to 1 µM.
For `CN(C)Cc1cccc(CS(N)(=O)=NC(=O)Nc2c3c(cc4c2CCC4)CCC3)c1` (stereo not drawn) [Compound 164, 1-(3-((dimethylamino)methyl)pheny1)-N′-((1,2,3,5,6,7-hexahydro-s-indacen-4-yl)carbamoyl) methane-sulfonimidamide], the IC50 fell in the range of 5 to 30 µM.
The molecule `CC(C)(O)c1ccc(CS(N)(=O)=NC(=O)Nc2c3c(cc4c2CCC4)CCC3)cc1` (stereo not drawn) [Compound 165, N′-((1,2,3,5,6,7-hexahydro-s-indacen-4-yl)carbamoyl)-1-(4-(2-hydroxypropan-2-yl)phenyl)methane-sulfonimidamide] displayed an IC50 of 0.2 to 1 µM.
On to `CC(C)c1cc(F)cc(C(C)C)c1CC(=O)N=S(N)(=O)C1CC1` (stereo not drawn) [Compound 307], for which the IC50 lay in the range of 0.008 to 0.04 µM.
`CC(C)c1cccc(C(C)C)c1NC(=O)NS(=O)(=O)CC(O)c1ccsc1` (stereo not drawn) [Compound 402]: the IC50 lay within 5 to 30 µM.

Staying with this test, now noted: Homo sapiens, THP-1, Average IC50, hTHP-1 assay containing 2% fetal bovine serum; Table 10, numeric values.
With `CC(CN(C)C)CS(N)(=O)=NC(=O)Nc1c2c(cc3c1CCC3)CCC2` (stereo not drawn) [Compound 126, 3-(dimethylamino)-N′-((1,2,3,5,6,7-hexahydro-s-indacen-4-yl)carbamoyl)-2-methylpropane-1-sulfonimidamide], the IC50 is above 30 µM.
In turn, `CN1CCC(S(N)(=O)=NC(=O)Nc2c3c(cc4c2CCC4)CCC3)CC1` (stereo not drawn) [Compound 137] had an IC50 above 30 µM.
Molecule `NS(=O)(=NC(=O)Nc1c2c(cc3c1CCC3)CCC2)C1CCCCC1` (stereo not drawn) [Compound 147] registered an IC50 above 30 µM.
As to `NS(=O)(=NC(=O)Nc1c2c(cc3c1CCC3)CCC2)C1CCC1` (stereo not drawn) [Compound 149, N′-((1,2,3,5,6,7-hexahydro-s-indacen-4-yl)carbamoyl) cyclobutane-sulfonimidamide], the IC50 is above 30 µM.
`NS(=O)(=NC(=O)Nc1c2c(cc3c1CCC3)CCC2)C1CCCC1` (stereo not drawn) [Compound 151]: the IC50 is above 30 µM.
Take `NS(=O)(=NC(=O)Nc1c2c(cc3c1CCC3)CCC2)C1CC1` (stereo not drawn) [Compound 156, N′-((1,2,3,5,6,7-hexahydro-s-indacen-4-yl)carbamoyl) cyclopropane-sulfonimidamide]: the IC50 is above 30 µM.
`CN(C)CC1(S(N)(=O)=NC(=O)Nc2c3c(cc4c2CCC4)CCC3)CC1` (stereo not drawn) [Compound 158] gave an IC50 above 30 µM.
For the molecule `CC1(S(N)(=O)=NC(=O)Nc2c3c(cc4c2CCC4)CCC3)CC1` (stereo not drawn) [Compound 161], the IC50 is above 30 µM.
Molecule `CC(C)c1cc(F)cc(C(C)C)c1CC(=O)N=S(N)(=O)CCCN(C)C` (stereo not drawn) [Compound 301] displayed an IC50 above 30 µM.
Turning to `CC(C)c1cc(F)cc(C(C)C)c1CC(=O)N=S(N)(=O)C1CCCC1` (stereo not drawn) [Compound 304], the IC50 was above 30 µM.
The molecule `CC(C)c1cc(F)cc(C(C)C)c1CC(=O)N=S(N)(=O)C1CC1` (stereo not drawn) [Compound 308] registered an IC50 above 30 µM.
`CC(C)c1cc(F)cc(C(C)C)c1NC(=O)NS(=O)(=O)C1CC1` [Compound 401] had an IC50 of 31.5 µM.
